Literature values as cited in patent US20230134521A1, “COMPOUNDS FOR METHODS FOR PROMOTING FEMALE REPRODUCTIVE HEALTH THROUGH MEDIATION OF RENIN ANGIOTENSIN FUNCTION” (priority 2021, published 2023).
Ends that are not written are not given here.

What was measured:
[1] = system: pre-menopausal women with SIAD related disorders (hypoactive sexual desire disorder)
[2] = system: rabbit clitoral cavernosal and vaginal smooth muscle strips; conditions: organ bath; for relaxation of clitoral and vaginal smooth muscle: female rabbit clitoral (cavernosal) and vaginal smooth muscle
[3] = system: female sexual health, performance or libido; conditions: doses administered to women

| Molecule | improvement to sexual health, performance or libido in women [3] | relaxation of clitoral and vaginal smooth muscle [2] | further results |
| --- | --- | --- | --- |
| O=c1[nH]c2ccccc2n1CCN1CCN(c2cccc(C(F)(F)F)c2)CC1 [Flibanserin, 2H-benzimidazol-2-one, 1,3-dihydro-1-[2-[4-[3(tri-fluoromethyl)phenyl]-1-piperazinyl]ethyl]] | – | – | share of women in whom the benefit was seen ([1]; 100 mg daily for a minimum of 28 days): 18%; therapeutic effect on Genitopelvic Pain/Penetration Disorder (vestibulodynia, dyspareunia) or Female Orgasmic Disorder ([1]; human, in vivo): no therapeutic effect at all; median placebo-corrected increase in satisfying sexual events (SSEs) ([1]; median baseline about 2-3 SSEs per month, over a six month period): 0.5-1.0 SSEs per month |
| N=C(N)NCCC[C@H](N)C(=O)O [L-arginine] | – | – | relaxation of clitoral cavernosal smooth muscle strips in response to NO donors ([2]; rabbit clitoral cavernosal smooth muscle strips): enhanced relaxation |
| CCCc1nc(C)c2c(=O)[nH]c(-c3cc(S(=O)(=O)N4CCN(CC)CC4)ccc3OCC)nn12 [Levitra] | without improvement | – | – |
| CCCc1nn(C)c2c(=O)[nH]c(-c3cc(S(=O)(=O)N4CCN(C)CC4)ccc3OCC)nc12 [Viagra] | without improvement | – | – |
| CCCc1nn(C)c2c(=O)[nH]c(-c3cc(S(=O)(=O)N4CCN(C)CC4)ccc3OCC)nc12 [sildenafil] | – | dose-dependent relaxation | – |
| vasoactive intestinal polypeptide (HSDAVFTDNYTRLRKQMAVKKYLNSILN; ends and bridges not checked; UniProt P01282 125-152, looked up) [VIP, nonadrenergic/noncholinergic neurotransmitter] | – | dose-dependent relaxation | – |
